Data: patent publication US7560473B2 (Institute of Pharmacology and Toxicology Academy of …, priority 2001, dated 2009)
Marks after values point to notes of the source that are not given here.

molecular target: T1, ATP-sensitive potassium channels in vascular smooth muscles (Rattus norvegicus, UniProt Q63563); assay: Association kinetics of [^3H]P1075 binding in aortic rings; set-up: species or system Wistar rat; settings: 37° C.; drug M: Compound 1 10^−4, Glibencamide 10^−5, ATP 10^−2, ADP 10^−3, UDP 5 × 10^−5, GTP 10^−3, Ade 10^−3; control 4.36 ± 0.45; means ± SD, n = 4~10
T1 construct: The aorta was cut into about 3-5 mm arterial rings and the vascular endothelium was scraped off; from tissue; host or cells: endothelium-removed aortic rings of male Wistar rats
Description: Biological activity experiment 4. Allosteric regulation of novel compounds on ATP-sensitive potassium channels in vascular smooth muscles.
To study the allosteric regulation of compound 1 on ATP-sensitive potassium channels in vascular smooth muscles, the radio-labled-ligand was used in the biological activity experiment 4.
1. The allosteric regulation of compound 1 on the binding sites for the selective KATP blocker glibenclamide in vascular smooth muscles was studied as follows: After decapitated, the male Wistar rat (340±20 g) was immediately incised open the thoracic cavity. The aorta was dissected and immersed in the 4° C. buffer containing 10 mM HEPES to wash off the blood, then carefully extirpated the fat, peripheral connective tissues and thrombus. The aorta was cut into about 3-5 mm arterial rings and the vascular endothelium was scraped off with wet tampon. The arterial rings were blotted, weighted and transferred into the tubes containing proper amount of ice colded physiological saline buffer. In the association kinetics experiment, the arterial circles in the tubes were incubated with, compound 1(10^−4M), pinacidil(10^−4M), ATP(10^−2M), ADP(10^−3M), Ade(10^−3M), […] and equal volume of buffer respectively for 10 min in 25° C. water bath, and then added [^3H]-glibenclamide(3 nM). At 5,10,15,20,30,60,90 and 120 min after incubation, 9 mL ice colded Tris buffer (50 mM) was added to terminate the reaction. After washing off the free and bound [^3H]-glibenclamide, the aorta was blotted, transferred to a scintillator, added 50 uL 30% H2O2 and reacted for 2 h at 80° C. After cooling, 2.5 mL ethyl glycol and 5 mL 1% B-BPD xylene were added in sequence, kept stationary for 8 h and measured under a scintillometer for cpm value. The resulting data were fit into a regression line with In[BEQ/(BEQ-Bt)]vs.t and the parameters for association kinetics were obtained. In the disassociation kinetics experiments, the aorta treated as described above and [^3H]-glibenclamide were incubated for 60 min at 25° C., and then 30 uM glibenclamide was added. 0,5,15,30,60,90 and 120 min later, the cpm values for the complex of [^3H]-glibenclamide and KATP were measured. The resulting data were fit into a regression line with In(B/BEQ)]vs.t and the parameters for disassociation kinetics were obtained. 2. The allosteric regulation of compound 1 on the binding sites for the selective KATP activator P1075 in vascular smooth muscles was studied with the method as described above, but some conditions should be changed as follows: the incubation temperature was 37° C. instead of 25° C.;P1075 was used instead of glibenclamide; In the association kinetics experiments, the time points for sampling were 5,10,15,20,30,45,60 and 90 min, while in the disassociation kinetics experiments, that were 1,3,5,10,20,30,45 and 60 min. Biological activity experiment 5. The effects of compound 1 on the specific binding of high selective activator [^3H]P1075 with ATP-sensitive potassium channels in vascular smooth muscles.

T1 sequence (Q63563 1-1545 isoform Q63563-2): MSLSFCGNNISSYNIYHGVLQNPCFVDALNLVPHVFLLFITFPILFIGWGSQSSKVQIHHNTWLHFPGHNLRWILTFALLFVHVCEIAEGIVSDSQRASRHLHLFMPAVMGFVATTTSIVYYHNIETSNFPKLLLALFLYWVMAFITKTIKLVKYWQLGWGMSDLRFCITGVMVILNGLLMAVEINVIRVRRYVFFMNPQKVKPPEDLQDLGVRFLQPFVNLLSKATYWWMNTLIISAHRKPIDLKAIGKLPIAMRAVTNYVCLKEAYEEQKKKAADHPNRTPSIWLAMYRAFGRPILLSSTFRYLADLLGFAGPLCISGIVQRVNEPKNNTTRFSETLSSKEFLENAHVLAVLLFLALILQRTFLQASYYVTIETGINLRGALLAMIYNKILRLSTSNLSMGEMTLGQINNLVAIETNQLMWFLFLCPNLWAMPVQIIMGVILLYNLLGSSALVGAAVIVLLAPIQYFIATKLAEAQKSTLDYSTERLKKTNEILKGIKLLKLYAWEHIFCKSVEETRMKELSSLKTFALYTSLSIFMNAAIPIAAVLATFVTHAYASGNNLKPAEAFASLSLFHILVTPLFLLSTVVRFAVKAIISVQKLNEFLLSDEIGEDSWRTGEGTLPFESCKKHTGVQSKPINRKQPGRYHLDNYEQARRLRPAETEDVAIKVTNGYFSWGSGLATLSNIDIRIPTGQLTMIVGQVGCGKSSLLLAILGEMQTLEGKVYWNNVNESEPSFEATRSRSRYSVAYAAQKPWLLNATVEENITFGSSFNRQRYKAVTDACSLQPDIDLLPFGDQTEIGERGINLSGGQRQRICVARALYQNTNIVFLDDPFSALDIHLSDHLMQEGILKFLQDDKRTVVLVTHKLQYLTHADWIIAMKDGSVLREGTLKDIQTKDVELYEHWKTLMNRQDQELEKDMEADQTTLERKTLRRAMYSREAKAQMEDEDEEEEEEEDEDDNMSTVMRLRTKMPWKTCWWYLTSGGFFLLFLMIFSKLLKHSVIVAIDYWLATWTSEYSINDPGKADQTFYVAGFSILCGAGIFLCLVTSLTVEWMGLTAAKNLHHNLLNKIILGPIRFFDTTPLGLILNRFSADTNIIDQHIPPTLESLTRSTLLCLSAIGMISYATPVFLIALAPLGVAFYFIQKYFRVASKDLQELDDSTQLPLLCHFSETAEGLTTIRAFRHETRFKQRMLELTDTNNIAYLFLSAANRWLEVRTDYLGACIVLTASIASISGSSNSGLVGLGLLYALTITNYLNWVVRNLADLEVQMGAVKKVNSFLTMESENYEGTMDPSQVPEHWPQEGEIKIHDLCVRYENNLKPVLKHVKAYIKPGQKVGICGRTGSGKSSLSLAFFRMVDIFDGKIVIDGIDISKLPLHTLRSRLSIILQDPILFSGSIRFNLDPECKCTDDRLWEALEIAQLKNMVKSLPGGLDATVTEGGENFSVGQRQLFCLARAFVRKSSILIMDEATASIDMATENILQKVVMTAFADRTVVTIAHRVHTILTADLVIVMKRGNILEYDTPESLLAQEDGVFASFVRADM
T1 sequence (Q63664 whole entry partner): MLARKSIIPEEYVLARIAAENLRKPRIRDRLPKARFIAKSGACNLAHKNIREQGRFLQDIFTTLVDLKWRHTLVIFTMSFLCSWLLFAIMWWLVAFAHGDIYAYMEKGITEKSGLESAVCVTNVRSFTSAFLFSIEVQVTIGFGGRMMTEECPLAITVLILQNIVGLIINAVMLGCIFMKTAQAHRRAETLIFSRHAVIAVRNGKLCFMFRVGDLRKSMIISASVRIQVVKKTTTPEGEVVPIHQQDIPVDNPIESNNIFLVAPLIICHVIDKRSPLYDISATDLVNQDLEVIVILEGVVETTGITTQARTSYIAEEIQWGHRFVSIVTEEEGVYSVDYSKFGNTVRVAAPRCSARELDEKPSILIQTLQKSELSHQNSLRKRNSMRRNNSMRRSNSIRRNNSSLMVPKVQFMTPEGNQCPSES

SMILES	Association kinetics kobs of [^3H]P1075 binding
Nc1nc2c(ncn2[C@@H]2O[C@H](COP(=O)(O)OP(=O)(O)OP(=O)(O)O)[C@@H](O)[C@H]2O)c(=O)[nH]1 [GTP]	3.86 ± 0.19 ×10^−2 nM^−1 · min^−1

tested on: rats anesthetized with pentobarbital sodium; assay: Effects on blood pressure, heart rate, cardiac contraction and dilation in rats anesthetized with pentobarbital sodium; assay type: in vivo, Wistar rats; set-up: unit not given here; settings: change after injection through femoral vein, '+' = increase, all others = decrease, n = 3~5, doses mg/kg: 2, 8, 12: 10, 3-7, 9-11, 40-44: 5
Method: Biological activity experiment 1. The effects of 16 compounds represented by formula I on blood pressure, heart rate, cardiac contraction and dilation in rats anesthetized with pentobarbital sodium.
The methods of biological activity experiment 1 were as follows: Male Wistar rats, weighing 280±30 g were purchased from the experimental animal center of Academy of Military Medical Sciences. Rats were anesthetized with pentobarbital sodium (45 mg/kg) by peritoneal injection. A PE50 polyethylene catheter was inserted into the left ventricle through right carotid artery for cardiac function measurement with a pressure energe exchanger, wherein the signal is put into a SMUP-PC biosignal processing system. Cardiac functional parameters such as HR, LVSP, +dp/dtmax, −dp/dtmax and Vpm were recorded. Another two PE50 polyethylene catheters were inserted into the right femoral artery and vein respectively for blood pressure measurement wherein the artery cathether was linked to a four-channel physiology recorder (RM-6000) through a MPU-0.5A Type pressure energe exchanger, which recorded SBP, DBP and MBP, while the vein catheter was used for compound administration. The methods were described by Liu Wei et al: Liu Wei, Wang Hai, Xiao Wen-Bin. […] Bull Acad Mil Med Sci 1996;20(4):245˜248.

SMILES	MBP: mean blood pressure
CNC(C)(C)C(C)C [compound 3]	22
CC(C)C(C)(C)N [compound 2]	24
CCCCNC(C)(C)C(C)C [compound 6, N-butyl-2,3-dimehyl-2-butylamine]	49
CCNC(C)(C)C(C)C [compound 4]	25

same assay, conditions: change after injection through femoral vein; '+' = increase, all others = decrease; mean, n = 3~5; doses mg/kg: 2, 8, 12: 10; 3-7, 9-11, 40-44: 5

SMILES	DBP: diastolic blood pressure	HR: heart rate	LVSP: left ventricular systolic pressure	SBP: systolic blood pressure	Vpm: the physiological velocity of contractile element shorting	−dp/dtmax: the maximal rate of the decrease of left ventricular pressure
CNC(C)(C)C(C)C [compound 3]	19	43	111	29	0.49	157
CC(C)C(C)(C)N [compound 2]	15	20	116	38	1.16	54
CCCCNC(C)(C)C(C)C [compound 6, N-butyl-2,3-dimehyl-2-butylamine]	43	111	263	61	0.98	276
CCNC(C)(C)C(C)C [compound 4]	23	44	146	31	0.45	177

tested on: outward potassium currents of rat tail arterial SMCs; assay: Whole cell recording of outward potassium currents in rat tail arterial SMCs; assay type: cell-based, Wistar rats; settings: 100 μmol L^−1, rat tail arterial SMCs
Description: Biological activity experiments 6. The effects of novel compounds on potassium currents in isolated arterial vascular smooth muscle cells (SMCs).
The outward currents were, elicited in rat tail arterial SMCs by superfusing extracellular solution under whole cell recording configuration that the depolarizing pulse were applied from −30 mV to +100 mV with the holding potential of −40 mV in 100 ms, 10 mV clamp steps, a frequency of 5 KHz. The compounds were applied in the bath at the concentrations of 100 μmol L^−1. The amplitude of the outward potassium currents was recorded before and after compound application Values were expressed as means±SD. Statistical significance between two groups was evaluated by student's t-test for paired data * P<0.05 **P<0.01 vs control.
1. Preparation of single smooth muscle cells from rat tail arteries: Male Wistar rats (200-250 g) were killed by exsanguination. The tail artery was dissected out and transferred into cold physiological salt solution (PSS) of the following composition (in mM): NaCl 118.3, KCl 4.7, KH2PO4 1.2, MgSO4 1.2, NaHCO3 25.0, CaCl2 2.5, EDTA 0.026 and Glucose 5.0 pH7.4. With the use of a dissecting microscope, the connective tissues were removed and the artery was cut open longitudinally. Endothelium was removed carefully with a cotton swab then the artery was cut into segments with 1 mm long and placed in 4° C. the extracellular solution containing (in mM) NaCl 130, KCl 5, MgCl2 1.2, HEPES 10, Glucose 10, pH7.2 for 20 min. After this incubation, the medium was changed to enzyme solution which was composed of collagenase I (1 mg ml^−1), papain (5 mg ml^−) and bovine serum albumin (2 mg ml^−1). The tissues, were incubated in this solution for 40 min, and then rinsed three times triturated using a fire-polished Pasteur pipette until the medium turned cloudily. The cell suspension was stored in the refrigerator at 4° C.
3. Whole cell recordings: A bath dish with the smooth muscle cells (SMCs) attached and superfused with the extracellular solution at a flow rate of 2 ml min^−1 was mounted onto the stage of an inverted-phase contrast microscope. The microelectrodes having a resistance of (5-8 MΩ) were made from boroscilicate thin-wall glass capillaries, using an automatic multiple-stage, electronic puller (PP830 Japan) and then heat-polished. After establishing a high resistance seal, the patch membrane was disrupted by negative pressure. A commercial patch clamp amplifier (Axon 200B) was used to generate and apply voltages and sample current signals from the cell.

SMILES	stimulation of potassium channel activities (in words)
C=CCNC(C)(C)C(C)C [compound 25, N-allyl-2,3-dimethyl-2-butylamine]	Maximum potency

same assay, conditions: outward potassium current amplitude after compound 100 μmol L^−1 in the bath; X ± SD n = 5

SMILES	Currents, + Compound
C=CCNC(C)(C)C(C)C [compound 25, N-allyl-2,3-dimethyl-2-butylamine]	1.46 ± 0.50** nA
CNC(C)(C)C(C)C [compound 3]	0.60 ± 0.34 nA
CC(C)C(C)(C)N [compound 2]	1.01 ± 0.57 nA
CCC(C)NC(C)(C)C(C)C (centres unmarked) [compound 13, N-(1-methylpropyl)-2,3-dimethyl-2-butylamine]	0.85 ± 0.31** nA
CC(C)C(C)(C)NCC1CC1 [compound 15, N-cyclopropylmethyl-2,3-dimethyl-2-butylamine]	1.30 ± 0.45* nA
CC(C)C(C)(C)NCc1ccccc1 [compound 24]	0.63 ± 0.19 nA
CCCCNC(C)(C)C(C)C [compound 6, N-butyl-2,3-dimehyl-2-butylamine]	1.18 ± 0.54* nA
CC(C)C(C)(C)NC(=O)c1cccnc1 [compound 39]	0.51 ± 0.22 nA
CCNC(C)(C)C(C)C [compound 4]	0.69 ± 0.14** nA

same assay, conditions: outward potassium current amplitude before compound application, same cells; X ± SD n = 5

SMILES	Currents, Control (before compound application) [nA]
C=CCNC(C)(C)C(C)C [compound 25, N-allyl-2,3-dimethyl-2-butylamine]	0.68 ± 0.19
CNC(C)(C)C(C)C [compound 3]	0.56 ± 0.31
CC(C)C(C)(C)N [compound 2]	0.91 ± 0.49
CCC(C)NC(C)(C)C(C)C (centres unmarked) [compound 13, N-(1-methylpropyl)-2,3-dimethyl-2-butylamine]	0.55 ± 0.34
CC(C)C(C)(C)NCC1CC1 [compound 15, N-cyclopropylmethyl-2,3-dimethyl-2-butylamine]	0.83 ± 0.24
CC(C)C(C)(C)NCc1ccccc1 [compound 24]	0.65 ± 0.19
CCCCNC(C)(C)C(C)C [compound 6, N-butyl-2,3-dimehyl-2-butylamine]	0.49 ± 0.23
CC(C)C(C)(C)NC(=O)c1cccnc1 [compound 39]	0.46 ± 0.14
CCNC(C)(C)C(C)C [compound 4]	0.61 ± 0.12

tested on: SHRsp; assay: Prophylaxis and treatment of SHRsp cerebral apoplexy; assay type: in vivo, rats; settings: 40 mg · kg^−1d^−1 fed; control 4.6 ± 3.8; means ± SD
Method: Biological activity experiment 8 the prophylaxis and treatment of cerebral apoplexy with compound 1 of formula Ia
The methods of biological activity experiments were carried out as follows: Desired concentration of compound 1 was prepared with distilled water, while desired concentration of nimodipine was prepared with market available Jinglongyu^T oil. 30 male and 30 female SHRsp (10 weeks old, 120-180 g) were purchased from the vascular disease research center of Academy of Military Medical Science. All SHRsp were divided randomly into five groups based on blood pressure, body weight and sex: control group (fed with equal amount of Jinglongyu^T oil), […], […], […], and 4.0 mg.kg^−1d^−1 nimodipine treated group. Each group contained 12 animals and 4-5 animals were fed in a cage. The feedstaff (containing 23-24% protein) was purchased from experimental animal center of Academy of Military Medical Science. The animals were fed with tap water containing 1% NaCl to accelerate the onset of cerebral apoplexy. 12 normal WKY rats (with the same age and sex with the above) were selected as control, and fed with tap water and the same feedstuff. When reached 11 weeks old, the animals were fed with drugs for experiments.

SMILES	Survival time [days]
COCCOC(=O)C1=C(C)NC(C)=C(C(=O)OC(C)C)C1c1cccc([N+](=O)[O-])c1 (centres unmarked) [Nimodipine, nimodipine, reference compound]	11.1 ± 2.7

same assay, conditions: 40 mg · kg^−1d^−1 fed; control 48.3 ± 7.4; means ± SD

SMILES	Period needed for onset of cerebral apoplexy [days]
COCCOC(=O)C1=C(C)NC(C)=C(C(=O)OC(C)C)C1c1cccc([N+](=O)[O-])c1 (centres unmarked) [Nimodipine, nimodipine, reference compound]	66.0 ± 14.8

same assay, conditions: 40 mg · kg^−1d^−1 fed; n 12; control 50.0

SMILES	Death rate of cerebral apoplexy
COCCOC(=O)C1=C(C)NC(C)=C(C(=O)OC(C)C)C1c1cccc([N+](=O)[O-])c1 (centres unmarked) [Nimodipine, nimodipine, reference compound]	9.1* %

same assay, conditions: 40 mg · kg^−1d^−1 fed; n 12; control 83.3

SMILES	Rate of cerebral apoplexy
COCCOC(=O)C1=C(C)NC(C)=C(C(=O)OC(C)C)C1c1cccc([N+](=O)[O-])c1 (centres unmarked) [Nimodipine, nimodipine, reference compound]	36.4* %

molecular target: T1, ATP-sensitive potassium channels in vascular smooth muscles; assay: Inhibition of specific binding of [^3H]P1075 in endothelium-removed rat aorta; set-up: species or system Wistar rat; settings: [^3H] P1075 5 nmol L^−1, 90 minutes at 37° C., endothelium-removed rat aorta

SMILES	IC50 [nM]
CCC(C)(C)N=C(NC#N)Nc1cccnc1 [P1075, reference compound]	9.1 ± 1.3
